Data set [1] is described as follows: Cytotoxicity against human MT4 cells assessed as reduction in cell viability incubated for 4 days by MTT assay. The class given is cell-based.
The target in data set [2] is Human immunodeficiency virus type 1 reverse transcriptase (Human immunodeficiency virus 1, UniProt Q72547). The experiment in a line: Inhibition of recombinant HIV-1 reverse transcriptase p66/p51 incubated for 40 mins by picogreen dye based spectrofluorometric assay.
In data set [3] the test system is Human immunodeficiency virus 1. Put plainly: Antiviral activity against HIV-1 harboring reverse transcriptase E138K mutant infected in human MT4 cells assessed as reduction in virus-induced cytopathic effect incubated for 4 days by MTT assay. The class given is functional, organism-based. As to conditions: Human immunodeficiency virus 1, MT4, 96 h. (Cytopathic effects are the visible damage that an infection or toxin causes in cultured cells.)

For data set [4], the system named is Human immunodeficiency virus 1. The experiment in a line: Antiviral activity against HIV-1 harboring reverse transcriptase L100I mutant infected in human MT4 cells assessed as reduction in virus-induced cytopathic effect incubated for 4 days by MTT assay. The class given is functional, organism-based. The following applies: Human immunodeficiency virus 1, MT4, 96 h.

Data set [5] relates to Human immunodeficiency virus 1. The experiment in a line: Antiviral activity against HIV-1 harboring reverse transcriptase K103N mutant infected in human MT4 cells assessed as reduction in virus-induced cytopathic effect incubated for 4 days by MTT assay. The class given is functional, organism-based. The following applies: Human immunodeficiency virus 1, MT4, 96 h.
In data set [6] the test system is Human immunodeficiency virus 1. The experiment in a line: Antiviral activity against HIV-1 harboring reverse transcriptase Y181C mutant infected in human MT4 cells assessed as reduction in virus-induced cytopathic effect incubated for 4 days by MTT assay. The class given is functional, organism-based. As to conditions: Human immunodeficiency virus 1, MT4, 96 h.

pEC50, pIC50: −log10 of the molar value. Bounds are passed on as bounds.

For orientation: CC50 means the concentration giving 50% cytotoxicity. As for `Cc1cc(C#N)cc(C)c1Oc1nc(Nc2ccc(C#N)cc2)nc(N)c1Br` [ETRAVIRINE], the CC50 at 96 h in data set [1] was more than 4610 nM. The term pIC50 denotes the negative decadic logarithm of the IC50, by convention in mol/L. For the compound `N#Cc1ccc(Nc2nc(Oc3ccc(-c4ccc(C#N)c(Cl)c4)cc3Cl)c3sccc3n2)cc1`, the negative logarithm of the IC50 (pIC50) in data set [2] was 7.51. As for `Cc1cc(C#N)ccc1-c1ccc(Oc2nc(Nc3ccc(C#N)cc3)nc3ccsc23)cc1C`, the pIC50 in data set [2] is 7.57. Same read-out and setting: with `Cc1cc(-c2ccc(C#N)cc2F)ccc1Oc1nc(Nc2ccc(C#N)cc2)nc2ccsc12` the figure was 7.21. As usually defined, the pEC50 is −log10 of the EC50, conventionally taken in molar units. With `Cc1ccnc2c1NC(=O)c1cccnc1N2C1CC1` [NEVIRAPINE], the pEC50 was 6.70 in data set [3], 5.70 in data set [4], less than 5.02 in data set [5] and less than 4.82 in data set [6]. Also, in data set [1], the cytotoxic concentration (CC50) at 96 h is more than 15000 nM. For `N#Cc1ccc(Nc2nc(Oc3ccc(-c4ccc(C#N)cc4F)cc3)c3sccc3n2)cc1`, the pIC50 in data set [2] was 7.19.

On to `O=C1Nc2ccc(Cl)cc2[C@@](C#CC2CC2)(C(F)(F)F)O1` [EFAVIRENZ], for which the cytotoxic concentration (CC50) at 96 h in data set [1] is more than 6340 nM.

Regarding `Cc1cc(-c2ccc(Oc3nc(Nc4ccc(C#N)cc4)nc4ccsc34)cc2C)ccc1C#N`, the pIC50 in data set [2] was 7.38.

(Values after ChEMBL document CHEMBL4406828, “Conformational restriction design of thiophene-biphenyl-DAPY HIV-1 non-nucleoside reverse transcriptase inhibitors” (Eur J Med Chem, 2019).)
